In paper PMC6100724, “Proteome‐wide analysis of phospho‐regulated PDZ domain interactions” (Molecular Systems Biology, 2018):
Square brackets hold non-standard residues; d marks the D form. Peptide text beside a SMILES is read from it. * marks the point of attachment. FITC = O=C1OC2(c3ccc(O)cc3Oc3cc(O)ccc32)c2ccc(NC(=S)*)cc21; pS = N[C@@H](COP(=O)(O)O)C(=O)O

How the values were obtained:
DLG1 PDZ2 [1] = target: T1, DLG1 PDZ2 (Homo sapiens, UniProt Q12959); assay: MST affinity measurement, FITC-labeled peptides vs DLG1 PDZ2; assay type: binding; details: FITC-labeled peptide fixed at 25–50 nM, titrated with DLG1 PDZ2 (aa 311–407), 50 mM Tris–HCl pH 7.4, 0.1% Tween‐20, thermophoresis and T Jump signal, mean ± SD, n = 3, read-out: KD values, DLG1 PDZ2 (table row head: DLG PDZ1), MST
T1 construct: human DLG1 PDZ2 aa 311–407 in a modified pRSET vector 40; made in house; host or cells: E. coli BL21 Gold (DE3)
Description: (§1) Glutathione transferase (GST)‐tagged PDZ domains and GST for phage display selections were expressed and purified as described previously (Tonikian et al, 2008; Ivarsson et al, 2014). Protein expression for MST, ITC, and NMR experiments was as follows: Plasmids encoding His‐tagged proteins (human Scribble PDZ1 aa 719–829 in pETM‐11, human DLG1 PDZ2 aa 311–407 in a modified pRSET vector 40, or human Shank1 PDZ aa 652–761 in pETM‐33) were transformed into E. coli BL21 Gold (DE3; Agilent), and the proteins were expressed in 2YT media supplemented with appropriate antibiotic (70 or 100 μg/ml carbenicillin). Protein expression was induced upon reaching an OD600 of 0.8 by adding 1 mM isopropyl β‐D‐1‐thiogalactopyranoside (IPTG) final concentration and allowed for 4 h at 30°C.
(§2) Scribble PDZ1 for NMR experiments was expressed in M9 salt enriched with 13C D‐glucose and 15N ammonium chloride. Bacteria were harvested by centrifugation at 10,000 × g for 20 min at 4°C. The pellets were resuspended in PBS supplemented with 5 mM CaCl2, 10 μg/ml DNaseI, and 1 mg/ml lysozyme and protease inhibitor (cOmplete Mini EDTA‐free; Sigma‐Aldrich) and incubated for 1 h at 4°C. The lysates were subjected to sonication in 1‐ to 3‐s pulses for 20 pulses. The lysate was cleared by centrifugation at 20,000 × g for 1 h. […]

Scribble PDZ1 [2] = target: T2, Scribble PDZ1 (Homo sapiens, UniProt Q14160); assay: ITC titration, wild-type Scribble PDZ1; assay type: binding; details: unlabeled 9-mer peptides, 20 mM HEPES pH 7.4, 25°C, 50–100 μM protein in cell, 0.64–3 mM peptide in syringe, single-site fit, mean ± SD
T2 construct: human Scribble PDZ1 aa 719–829 in; made in house; host or cells: E. coli BL21 Gold (DE3)
Description: as §1
as §2, with “pulses.” for “pulses. The lysate was cleared by centrifugation at 20,000 × g for 1 h.”
Peptides and proteins were dialyzed in the same beaker in 20 mM HEPES, pH 7.4. […] The results were analyzed using Origin 7 (OriginLab Corporation). […]

DLG1 PDZ2 [3] = target: T1, DLG1 PDZ2; assay: Phosphomimetic ProP-PD selection with NGS; assay type: binding; details: mean of selections 1-3, bait DLG1 PDZ2
Outline: (§3)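 Selections were run for four rounds on immobilized PDZ domains, with non-specific phage depleted on GST each round. Enriched pools from the third day were sequenced, and interactions were ranked by each peptide's share of NGS reads.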

Scribble PDZ1 [4] = target: T2, Scribble PDZ1; assay: Phosphomimetic ProP-PD selection with NGS; assay type: binding; details: bait Scribble PDZ1; mean of selections 1-3
Outline: as §3

DLG1 PDZ3 = assay: Phosphomimetic ProP-PD selection with NGS; assay type: binding, human; details: mean of selections 1-3; bait DLG1 PDZ3
Outline: as §3

DLG1 PDZ1 = assay: Phosphomimetic ProP-PD selection with NGS; assay type: binding, human; details: mean of selections 1-3, bait DLG1 PDZ1; for Mean fraction #NGS counts mimetic peptide / total count selection: phosphomimetic peptide; for Mean fraction #NGS counts wt peptide / total counts selection: wild type peptide
Outline: as §3

Scribble PDZ2 = assay: Phosphomimetic ProP-PD selection with NGS; assay type: binding, human; details: bait Scribble PDZ2; mean of selections 1 and 2 (selection 3 empty)
Outline: as §3

Scribble PDZ3 = assay: Phosphomimetic ProP-PD selection with NGS; assay type: binding, human; details: mean over selections 1-3; bait Scribble PDZ3
Outline: as §3

T1 sequence (Q12959 311-407): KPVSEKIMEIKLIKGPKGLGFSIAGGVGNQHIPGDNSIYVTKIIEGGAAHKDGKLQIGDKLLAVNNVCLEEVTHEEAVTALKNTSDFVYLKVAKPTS
T2 sequence (Q14160 719-829): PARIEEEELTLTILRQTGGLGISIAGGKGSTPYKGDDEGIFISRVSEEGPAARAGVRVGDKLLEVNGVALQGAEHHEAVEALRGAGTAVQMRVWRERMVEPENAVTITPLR

Molecule	Mean fraction #NGS counts mimetic peptide / total count selection (DLG1 PDZ2 [3])	Mean fraction #NGS counts mimetic peptide / total count selection (Scribble PDZ1 [4])	Mean fraction #NGS counts mimetic peptide / total count selection (DLG1 PDZ3)	Mean fraction #NGS counts mimetic peptide / total count selection (DLG1 PDZ1)	Mean fraction #NGS counts mimetic peptide / total count selection (Scribble PDZ3)	Mean fraction #NGS counts wt peptide / total counts selection (Scribble PDZ1 [4])	Mean fraction #NGS counts wt peptide / total counts selection (DLG1 PDZ3)	Mean fraction #NGS counts wt peptide / total counts selection (DLG1 PDZ1)	Mean fraction #NGS counts wt peptide / total counts selection (Scribble PDZ3)	further results
CC[C@H](C)[C@H](NC(=O)[C@H](Cc1ccccc1)NC(=O)[C@H](CO)NC(=O)[C@H](CCCNC(=N)N)NC(=O)[C@H](CCCCN)NC(=S)Nc1ccc2c(c1)C(=O)OC21c2ccc(O)cc2Oc2cc(O)ccc21)C(=O)N[C@@H](CCC(=O)O)C(=O)N[C@@H](CO)C(=O)N[C@@H](CC(N)=O)C(=O)N[C@H](C(=O)O)C(C)C [TANC1] ({FITC}-KRSFIESNV-OH)										Kd (DLG1 PDZ2 [1]): 2.7 ± 0.1 µM
CC[C@H](C)[C@H](NC(=O)[C@H](Cc1ccccc1)NC(=O)[C@H](COP(=O)(O)O)NC(=O)[C@H](CCCNC(=N)N)NC(=O)[C@H](CCCCN)NC(=S)Nc1ccc2c(c1)C(=O)OC21c2ccc(O)cc2Oc2cc(O)ccc21)C(=O)N[C@@H](CCC(=O)O)C(=O)N[C@@H](CO)C(=O)N[C@@H](CC(N)=O)C(=O)N[C@H](C(=O)O)C(C)C [pTANC1, FITC‐KRpSFIESNV] ({FITC}-KR[pS]FIESNV-OH)										Kd (DLG1 PDZ2 [1]): 6.1 ± 0.7 µM
ARVSKEpTPL [pMAPK12, p‐2 phosphorylated MAPK12 peptide]										KD values, Scribble PDZ1, ITC (Scribble PDZ1 [2]; n = 3): no binding; KD values, Scribble PDZ1, ITC (Scribble PDZ1 [2]; n = 3, listed as phosphorylated MAPK12): no interaction was observed
HSIKQETAV	0.01768	6.299e-5	0.0006363	0.0009534	0.0001468					Mean fraction #NGS counts mimetic peptide / total count selection (Scribble PDZ2): 0.001519
HSIKQSTAV	0					4.38e-5	0	0.0004538	5.205e-5	Mean fraction #NGS counts wt peptide / total counts selection (DLG1 PDZ2 [3]; wild type peptide): 5.408e-5; Mean fraction #NGS counts wt peptide / total counts selection (Scribble PDZ2): 0.0003798
LPKIKEETV	0	0	0	3.0718e-6	0					
LPKIKETTV						0.0005451	0.008422	0.004479	0.004275	Mean fraction #NGS counts wt peptide / total counts selection (DLG1 PDZ2 [3]): 0.04339
VWLRKEERV	3.584e-5	0	9.275e-5	0	0					Mean fraction #NGS counts mimetic peptide / total count selection (Scribble PDZ2): 0
VWLRKETRV						0.0001002	0.8949	0.4163	0.009414	Mean fraction #NGS counts wt peptide / total counts selection (DLG1 PDZ2 [3]): 0.5055; Mean fraction #NGS counts wt peptide / total counts selection (Scribble PDZ2): 0.008925
